The values that follow come from patent US20070203215A1, “Methods & Compositions For Enhancing Pharmaceutical Treatments” (Taiji Biomedical, Inc., priority 1999, published 2007).

Several values for one entry are separate records, joined by “and”; a condition that tells them apart may be missing. Equal values may be shown once.

Series [1] is described as follows: Enhancement of the oral bioavailability of paclitaxel and docetaxel in rats. The format is in vivo. To be noted: male, Sprague-Dawley, rat, plasma, 10 mg/kg, Drug alone (10 mg/kg) oral; for AUC(0-t): read-out: AUC0-8. How it is done:
In a further example, separate groups of eight male Sprague-Dawley rats (250-300 g body weight) with cannulae inserted into the jugular vein were purchased from Harlan-Sprague Dawley (Madison, Wis.). Animals were allowed free movement and access to water but were fasted for at least 8 h prior to the dose until study completion. […] Immediately prior to administration the mixture was diluted in saline to provide a paclitaxel or docetaxel concentration of 1mg/ml. Animals were then administered 10 μl/g body weight by oral gavage.
Serial blood samples (500 μl) were drawn prior to each dose (time 0) and at 0.5, 1, 2, 3, 4, 6 and 8 h through a cannula inserted into the jugular vein. The blood was collected into Microtainer® tubes containing EDTA anticoagulant. Whole blood was centrifuged under refrigeration at 2800 rpm for 10-20 minutes. Plasma samples were stored at −20° C. until analysis using a validated HPLC-MS method. Maximum plasma paclitaxel concentration (Cmax) and time to achieve this concentration (Tmax) were measured from concentration vs. time profiles. Area under the concentration vs. time curve from 0-8 hours (AUC0-8) was calculated using the linear and log trapezoidal methods in the rising and declining phases of the concentration vs. time curve respectively.

A short description of series [2]: Blood-brain barrier penetration of loperamide, mouse hot-plate test. The format is in vivo, mice. Conditions: loperamide alone, i.v. 1-16 mg/kg. The source says:
These increases were dose dependent with respect to loperamide.

The nature of series [3]: Oral paclitaxel bioavailability enhancement in rats (mesylate salt). The class given is in vivo. To be noted: male, Sprague Dawley, rat, plasma, Group 2: paclitaxel 40 mg/kg p.o. + vehicle. How it is done:
A total of 21 male Sprague Dawley rats were used. Animals were approximately 8 weeks of age at arrival and weighed ca 327-359 g.
Following analysis of paclitaxel, all remaining plasma were tested for a determination of the Formula 2 compound concentration.
Plasma samples were analyzed for unchanged paclitaxel using a liquid chromatography/mass spectroscopy (“LC/MS”) assay. […] The highest observable concentration was used as the peak concentration (Cmax). Time to Cmax was denoted as Tmax. […] The area under the plasma concentration curve extrapolated to infinity (AUC(I)) was calculated as the sum of AUC(0-t) plus the ratio of the last plasma concentration to the elimination rate constant. The terminal elimination constant (K) was calculated from the last 3 non-zero points of the log-linear regression. Half-life (tot) was determined by dividing 0.693 by K. The apparent plasma clearance (CL/F) was calculated for paclitaxel by dividing the nominal dose administered by AUC(I). […] Where values were below the limit of quantification, zero was used for pharmacokinetic analysis. Statistical analysis consisted of a Student-T-test with Two-sample unequal variance approximation and was performed on AUC90-t) and Cmax values to compare the Formula 2 compound treated animals vs. the corresponding vehicle treated animals.

In series [4] the test system is MDA/LCC6^MDR1 tumors. In words: In vivo antitumor efficacy, orthotopic MDA/LCC6^MDR1 tumors. Set-up: species or system SCID/RAG2 mice. Conditions: single agent alone; paclitaxel 12 mg/kg i.v.; Formula 2 free base 30 mg/kg p.o. The procedure: Anti-tumor efficacy experiments with orthotopic MDA/LCC6 and MDA/LCC6^MDR1 tumors were conducted in female SCID/RAG2 mice. Ascites propagated cells (2×10^6 in 50 μl) were injected into mammary fat pads bilaterally on day 0 before randomization into groups of 5 mice per group. Paclitaxel (12 mg/kg/dose) was administered QD i.v. (tail vein) in 200 μl saline/Cremophor/ethanol (8/1/1 by volume) on days 5, 12, 19, and 26. The compound of Formula 2-free base (30 mg/kg/dose) was administered BID p.o. by gavage in 100 μl PEG 400/Tween 20 (9/1 by volume) on days 4-6, 11-13, 18-20, and 25-27. Mean body weights were recorded at least every other day. Tumor weight was monitored approximately every other day by caliper measurements and calculated according to the formula (Tumor weight =(length×width^2)÷2). This conversion formula was verified by comparing the calculation derived tumor weights to excised and weighed tumors. Animals bearing ulcerated tumors or where tumor weight exceeded 10% of the animal's body weight were terminated. The weights of the bilateral tumors were averaged for each mouse and mean tumor weights for each treatment group±standard error of the mean were calculated. Statistical analysis was carried out by Mann-Whitney test using GraphPad Prism software (San Diego, Calif.).
The compound of Formula 2 was administered the afternoon before, 2 hours before and 6 hours after each paclitaxel dose. The ability of orally administered Formula 2 compound to reverse MDR in solid tumors in vivo was assessed with the MDA/LCC6^MDR1 model. Because the compound of Formula 2 produced no effect on paditaxel blood levels, focus on up-front therapy (for naive animals) or minimal residual disease models was maintained, as opposed to established tumors. MDA/LCC6^MDR1 cells that express P-gp were resistant to paclitaxel treatment in vitro and this resistance was reversed by the compound of Formula 2 (FIG. 1). […] Similar results were obtained in three independent experiments with two different strains of immunocompromised mice (SCID/RAG-2 and athymic). […]

Series [5] deals with tumor-bearing mice. Conditions: 20 mg/kg paclitaxel alone once per week.
For series [6] the following is noted: single agent + vehicle; paclitaxel 24 mg/kg i.v. Q5D x6 + 36 mg/kg i.v. Q5D x2; Formula 2 compound 30 mg/kg p.o. afternoon before and BID day of treatments. How it is done:
Non-tumor bearing athymic mice were treated with the compound of Formula 2 and (or) paclitaxel as described.

The nature of series [7]: in vivo. To be noted: male, Sprague Dawley, rat; for concentration at 2 hr: 2 hr Post-Dose.
Method: (§1) Blood samples (ca 0.3 mL) were collected from 8 selected rats by jugular venipuncture during slight anesthesia pre-dose and at 0.25, 0.5, 1, 2, 4 and 8 post-dose (saquinavir dose). Cerebrospinal fluid (CSF) and brain tissue were collected terminally from the remaining 8 rats at ca 30 min following administration of the dose of saquinavir. Blood samples were collected into tubes containing EDTA and placed on wet ice pending centrifugation. Plasma, CSF and brain tissue samples were stored at ca −80° C. until analysis of saquinavir by LC/MS. The vehicle used was polyethylene glycol (PEG-400)1 Tween 20 (9:1; v:v).
(§2) A total of 16 male Sprague Dawley rats were received from Charles River Canada (Saint-Constant, Quebec). Animals were approximately 9 weeks of age at arrival and weighed ca 312-340 g. Four males were randomly assigned to each of Groups 1, 2, 3 and 4. On the day of dosing and following an overnight fast, animals were weighed (ca 305-323 g) and were administered their respective combination of doses. Animals of Groups 1 and 3 received a single oral dose of ONT-093 (20 mg/kg) by gavage at a dose volume of 2 mL/kg. Animals of Groups 2 and 4 received a single oral dose of the vehicle by gavage at a dose volume of 2 mL/kg. Approximately 30 min following administration of either ONT-093 or the vehicle, all animals received a single oral dose of saquinavir (20 mg/kg) by gavage at a dose volume of 1 mL/kg.
(§3) Following administration of saquinavir, blood samples (ca 0.3 mL in EDTA) were obtained from all rats of Groups 1 and 2 by jugular venipuncture during anesthesia with isoflurane (Ohmeda Pharmaceutical Products) at each of the following time-points: pre-dose (prior to administration of ONT-093 or vehicle) and 0.25, 0.5, 1, 2, 4 and 8 hr post-dose. Following administration of saquinavir, CSF was obtained from all animals of Groups 3 and 4 at 30 min following dose administration. CSF was collected (in tubes containing no anticoagulant) from the cistema magna during anesthesia with isoflurane. Following CSF collection, the animals were sacrificed by exsanguination via puncture of the vena cava and the brain was harvested from all these rats. Immediately following collection, all samples (blood, CSF and brain) were placed on ice until further processing or storage. Blood samples were centrifuged (ca 3080 g at ca 4° C. for 10 min) and the resulting plasma samples were stored at ca −80° C. pending analysis. CSF samples and brains were stored at ca −80° C. pending analysis.
(§4) Plasma samples, CSF samples and brains were analyzed for unchanged saquinavir using an LC/MS assay. Pharmacokinetic analysis was performed on plasma concentrations using the PhAST Software Program, Version 2.2-00 (Phoenix International Life Sciences Inc.). The highest observable concentration was assumed to be the peak concentration (Cmax); Time to Cmax was denoted Tmax. The area under the plasma concentration versus time-curve from time zero to the last measurable concentration [AUC(tf] was calculated by the linear trapezoidal method. Where applicable, numerical values were subjected to calculation of group means and % CV. Student-T-test with Satterthwaite approximation was performed on AUC and Cmax values to compare ONT-093 treated animals versus vehicle treated animals using SAS software program, Version 6.12 (SAS Institute Inc., Gary, N.C.). Where values were below limit of quantification, zero was used for pharmacokinetic analysis. The bioavailability (F) of saquinavir when administered with ONT-093 was calculated relative to the AUC values obtained from the animals receiving saquinavir following administration of the vehicle.
A short description of series [8]: Clinical signs after saquinavir dose. The class given is in vivo, Sprague Dawley rats. The procedure:
This clinical sign was no longer observable approximately 30 to 60 min after it was first observed.

Series [9] in a line: Saquinavir in rat cerebrospinal fluid and brain after oral ONT-093 or vehicle. To be noted: Group 4: after vehicle, 30 min after saquinavir dose, individual animals 4001-4004. The class given is in vivo, Sprague Dawley rats.
Method: as §1, §2, §3, §4

As a reminder, the Cmax is the highest concentration seen after dosing. With `CC(=O)O[C@@]12CO[C@@H]1C[C@H](O)[C@@]1(C)C(=O)[C@H](O)C3=C(C)[C@@H](OC(=O)[C@H](O)[C@@H](NC(=O)OC(C)(C)C)c4ccccc4)C[C@@](O)([C@@H](OC(=O)c4ccccc4)[C@H]21)C3(C)C` [Docetaxel], in [1] (control of the OCFB series), the Cmax amounted to 37 ng/mL and the AUC(0-t) was determined as 32 ng·h/mL. In series [1] (control of the OCM series), the Cmax turned out to be 30 ng/mL and the AUC(0-t) was 69 ng·h/mL.

Turning to `CN(C)C(=O)C(CCN1CCC(O)(c2ccc(Cl)cc2)CC1)(c1ccccc1)c1ccccc1` [Loperamide], the “Effect on mouse hot-plate escape time” value in series [2] was “no effect”.

With `CC(=O)O[C@H]1C(=O)[C@@]2(C)[C@H]([C@H](OC(=O)c3ccccc3)[C@]3(O)C[C@H](OC(=O)[C@H](O)[C@@H](NC(=O)c4ccccc4)c4ccccc4)C(C)=C1C3(C)C)[C@]1(OC(C)=O)CO[C@@H]1C[C@@H]2O` [Paclitaxel], the AUC(0-t) in series [3] came out at 67 ng·h/mL; in series [1] (control of the OCFB series), 266 ng·h/mL; in series [1] (control of the OCM series), 189 ng·h/mL. Moreover, the half-life in series [3] (read-out: Paclitaxel mean terminal phase half-life (t1/2) (converted)) is 3.9 h. For the same compound, the “In vivo tumor growth compared to the vehicle control” value in [4] is “no significant effect”. The compound further yielded a Lethality in series [5] of 50%. In addition, the “Tumor growth / tumor formation” value in series [5] is given as “significantly inhibited tumor growth, but did not completely prevent tumor formation at any injection site”. For the same compound, the Cmax in [1] (control of the OCFB series) stood at 99 ng/mL; in series [1] (control of the OCM series) it was 75 ng/mL. Also, the Survival in series [6] is listed as 0/4.

By AUC(0-inf) is commonly meant total exposure, with the tail of the curve extrapolated. A high value points to more exposure. By CL/F is commonly meant clearance divided by bioavailability, as obtained after extravascular dosing. One may read the Tmax as the time from dosing to the highest level. The compound `CC(C)(C)NC(=O)[C@@H]1C[C@@H]2CCCC[C@@H]2CN1C[C@@H](O)[C@H](Cc1ccccc1)NC(=O)[C@H](CC(N)=O)NC(=O)c1ccc2ccccc2n1` [Saquinavir] gave a concentration at 0.25 hr in series [7] (Concentration of Saquinavir in plasma, 0.25 hr Post-Dose, Mean) of 84.6 ng/mL. Besides, the concentration at 0.5 hr in series [7] (Concentration of Saquinavir in plasma, 0.5 hr Post-Dose, Mean) worked out at 72.5 ng/mL. The concentration at 1 hr in series [7] (Concentration of Saquinavir in plasma, 1 hr Post-Dose, Mean) was determined as 99.5 ng/mL. In [7] (Concentration of Saquinavir in plasma), the concentration at 2 hr was determined as 205 ng/mL. The same compound registered a concentration at 2 hr in [7] (Concentration of Saquinavir in plasma, Mean) of 157 ng/mL. In series [7] (Concentration of Saquinavir in plasma, 4 hr Post-Dose, Mean), the concentration at 4 hr came to 48.5 ng/mL. In series [7] (Concentration of Saquinavir in plasma, 8 hr Post-Dose, Mean), this compound yielded a concentration at 8 hr of 4.92 ng/mL. In series [7] (po, 20 mg/kg), the AUC(0-inf) stood at 524 ng·h/mL, the AUC(0-t) stood at 514 ng·h/mL, the CL/F was 654 mL/min/kg and the Cmax turned out to be 181 ng/mL. In series [7] (po, 20 mg/kg), the Tmax was determined as 1.6 h. Moreover, the “Rats with slight salivation immediately following the saquinavir dose” value (“Rats” below) in series [8] (Group 1 (ONT-093 pretreatment)) is 3 of 4. Also, in [8] (Group 2 (vehicle pretreatment)), the “Rats” value is recorded as 2 of 4. For the same compound, in series [8] (Group 3 (ONT-093 pretreatment)), the “Rats” value is recorded as 3 of 4. Further, in series [8] (Group 4 (vehicle pretreatment)), the “Rats” value is 4 of 4. Moreover, in series [9], the “Saquinavir Concentration in Brain” value is “BLQ (3×) and 1.40 ng/mL”; the “Saquinavir Concentration in CSF” value was “BLQ”. Further, in [9] (male, Sprague Dawley, rat, brain, oral, 20 mg/kg), the concentration at 30 min was found to be 1.4 ng/mL.
